# Laboratory results from patent US20170096708A1, “DIAGNOSTIC METHOD” (Convergence Pharmaceuticals Limited, priority 2014, published 2017).
# Structures can show the parent of a compound that is named as a salt.
# Test system: trigeminal neuralgia (TGN) patients
# Assay: 7 week randomized withdrawal trial with trigeminal neuralgia (TGN) patients
# Type: in vivo, human
# From the text: CNV1014802 is a novel Nav1.7 selective state-dependent sodium channel blocker that is being assessed in the treatment of trigeminal neuralgia. The trial used a randomized withdrawal design to assess efficacy in this rare condition and comprised a 21-day open-label phase followed by a randomized 28-day placebo-controlled phase for responders as described in Zakrzewska et al., (2013) Trials 14:402). Patients participated in an initial open-label treatment period of 21 days of CNV1014802 using 150 mg three times daily. Responders were then randomized to 28 days of CNV1014802 150 mg three times daily or placebo. A responder at the end of the open-label period was defined as a patient with one of the following: • 1) a 30% or more decrease in the total number of paroxysms over the last 7 days of the open-label phase as compared to the total number recorded in the 7-day baseline phase (day-7 to -1 prior to start of study medication, Run in); and/or • 2) a 30% reduction in the mean severity of pain experienced during the paroxysm over the last 7 days of the open-label phase as compared to the total number recorded in the 7-day baseline phase (day-7 to -1 prior to start of study medication, run in); and/or • 3) a Patient Global Improvement of Change rating of much improved/very much improved. Responders were randomized to CNV1014802 or placebo, in a 1:1 ratio. During the double-blind randomized phase, patients were evaluated at each clinic visit, which occurred every 7 days to determine whether they met the failure criteria in the double-blind treatment period. […]
smiles,measurement,setting,value
"NC(=O)[C@@H]1CC[C@H](c2ccc(OCc3ccccc3F)cc2)N1 [CNV1014802, (5R)-5-(4-{[(2-fluorophenyl)methyl]oxy}phenyl)-L-prolinamide hydrochloride salt]",reduction in pain severity,"150 mg three times daily, final week of double-blind (week 7) vs 7 day run-in, LOCF, compared to placebo group, p=0.04, FIG. 1",superior
same,reduction in the number of paroxysms,"150 mg three times daily, final week of double-blind (week 7) vs 7 day run-in, LOCF, compared to placebo group, p=0.08, FIG. 1",superior
same,response to treatment in patients with genetic variations within the CACNA1A gene and/or the CACNA1B gene,"all patients with genetic variations, responder criteria of the 21-day open-label phase",responded to treatment
